Test results: patent US10717736B2, “Pyrrole amides as alpha V integrin inhibitors” (BRISTOL-MYERS SQUIBB COMPANY, priority 2016, dated 2020)
Counter-ions that a name gives are not always drawn.

Experiments:
[1] = target: T1, human αVβ6 Integrin (Homo sapiens, UniProt P06756+P18564); experiment: human αVβ6 HTRF binding assay
T1 construct: purchased R & D systems 3817-AV
Procedure: (§1) All binding assays used the HTRF (homogeneous time resolved fluorescence) technology from Cisbio International, therefore all assays are described as HTRF binding assays. The assay results for the Examples are listed above together with the characterization data. The HTRF binding assays are established for the following integrins: human αVβ6, human αVβ1, human αVβ3, human αVβ5, and human αVβ8. All assays used the following assay buffer: 20 mM Tris, pH 7.4, 1 mM MgCl2, 1 mM MnCl2, 0.01% Tween 20, and 0.01% BSA. Alternatively, a SPA-based assay was used for evaluation of receptor binding.
(§2) The following describes the components and a representative procedure for the human αVβ6 HTRF binding assay: Recombinant human αVβ6 Integrin (R & D systems, 3817-AV) was biotinylated. Biotinylated human αVβ6 Integrin was added to assay vessel at a final concentration of 1.25 nM. FITC-conjugated fibronectin (Cytoskeleton, FNR02) was then added at the final concentration of 5 nM. The mixture was centrifuged at 600 rpm for three minutes using Thermo Fisher Heraeus Multifuge X3 centrifuge and then incubated at RT for an hour. Streptavidin Terbium (Cisbio international 610STLB) was then added at the final concentration of 0.625 nM. The resulting mixture was centrifuged at 600 rpm for three minutes using Thermo Fisher Heraeus Multifuge X3 centrifuge and then incubated at room temperature overnight in dark before reading HTRF signals.

[2] = target: human αVβ1 (Homo sapiens, UniProt P05556+P06756); experiment: human αVβ1 HTRF binding assay
Procedure: as §1, §2

[3] = target: human αVβ3 (Homo sapiens, UniProt P05106+P06756); experiment: human αVβ3 HTRF binding assay
Procedure: as §1, §2

[4] = target: human αVβ5 (Homo sapiens, UniProt P06756+P18084); experiment: human αVβ5 HTRF binding assay
Procedure: as §1, §2

[5] = target: human αVβ8 (Homo sapiens, UniProt P06756+P26012); experiment: human αVβ8 HTRF binding assay
Procedure: as §1, §2

Chain of human αVβ5 (P06756 31-992 limits assumed): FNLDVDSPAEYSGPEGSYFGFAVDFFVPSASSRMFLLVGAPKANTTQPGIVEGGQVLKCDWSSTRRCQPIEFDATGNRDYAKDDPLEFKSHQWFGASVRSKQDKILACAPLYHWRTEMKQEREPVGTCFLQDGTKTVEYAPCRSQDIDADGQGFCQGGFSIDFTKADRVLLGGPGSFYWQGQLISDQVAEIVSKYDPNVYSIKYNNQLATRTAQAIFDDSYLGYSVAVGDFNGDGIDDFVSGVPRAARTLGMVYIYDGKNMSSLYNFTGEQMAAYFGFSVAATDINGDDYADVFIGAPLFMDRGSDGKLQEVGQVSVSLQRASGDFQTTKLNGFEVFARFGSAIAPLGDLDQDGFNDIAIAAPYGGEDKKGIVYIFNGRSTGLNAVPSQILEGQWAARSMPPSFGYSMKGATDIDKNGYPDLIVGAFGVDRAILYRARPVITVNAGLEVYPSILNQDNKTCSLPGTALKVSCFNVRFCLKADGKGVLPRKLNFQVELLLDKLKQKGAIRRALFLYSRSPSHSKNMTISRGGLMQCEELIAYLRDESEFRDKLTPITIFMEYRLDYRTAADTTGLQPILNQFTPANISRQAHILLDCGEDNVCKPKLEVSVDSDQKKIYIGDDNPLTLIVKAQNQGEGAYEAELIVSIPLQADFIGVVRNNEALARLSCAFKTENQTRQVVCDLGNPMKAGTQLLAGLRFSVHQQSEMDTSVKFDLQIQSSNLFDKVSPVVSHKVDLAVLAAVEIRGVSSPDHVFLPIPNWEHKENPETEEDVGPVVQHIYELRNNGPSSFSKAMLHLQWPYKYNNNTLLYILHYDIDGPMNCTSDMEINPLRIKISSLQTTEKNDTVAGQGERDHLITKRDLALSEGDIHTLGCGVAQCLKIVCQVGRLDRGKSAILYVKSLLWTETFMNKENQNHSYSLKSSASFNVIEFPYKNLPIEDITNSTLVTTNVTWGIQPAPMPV
Chain of human αVβ5 (P18084 24-719 limits assumed): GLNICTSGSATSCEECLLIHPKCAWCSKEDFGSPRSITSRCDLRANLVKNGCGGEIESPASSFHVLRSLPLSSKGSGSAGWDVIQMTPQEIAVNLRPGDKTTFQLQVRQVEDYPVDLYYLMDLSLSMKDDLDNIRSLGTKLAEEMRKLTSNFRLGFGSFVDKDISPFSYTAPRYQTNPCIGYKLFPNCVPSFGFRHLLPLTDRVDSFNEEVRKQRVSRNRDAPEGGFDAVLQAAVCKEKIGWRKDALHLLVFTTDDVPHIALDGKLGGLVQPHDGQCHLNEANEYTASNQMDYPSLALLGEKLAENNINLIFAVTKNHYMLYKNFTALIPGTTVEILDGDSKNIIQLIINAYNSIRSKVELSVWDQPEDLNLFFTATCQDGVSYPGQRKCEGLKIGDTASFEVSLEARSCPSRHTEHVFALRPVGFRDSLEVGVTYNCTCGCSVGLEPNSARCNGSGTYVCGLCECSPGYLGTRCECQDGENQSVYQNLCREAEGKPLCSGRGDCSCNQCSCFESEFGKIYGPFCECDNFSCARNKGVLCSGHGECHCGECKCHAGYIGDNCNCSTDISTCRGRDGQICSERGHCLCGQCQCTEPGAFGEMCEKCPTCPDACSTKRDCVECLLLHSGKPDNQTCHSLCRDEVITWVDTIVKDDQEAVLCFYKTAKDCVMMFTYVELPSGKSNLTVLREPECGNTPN
Chain of human αVβ1 (P06756 31-992 limits assumed): as the sequence (P06756 31-992 limits assumed) above
Chain of human αVβ1 (P05556 21-728 limits assumed): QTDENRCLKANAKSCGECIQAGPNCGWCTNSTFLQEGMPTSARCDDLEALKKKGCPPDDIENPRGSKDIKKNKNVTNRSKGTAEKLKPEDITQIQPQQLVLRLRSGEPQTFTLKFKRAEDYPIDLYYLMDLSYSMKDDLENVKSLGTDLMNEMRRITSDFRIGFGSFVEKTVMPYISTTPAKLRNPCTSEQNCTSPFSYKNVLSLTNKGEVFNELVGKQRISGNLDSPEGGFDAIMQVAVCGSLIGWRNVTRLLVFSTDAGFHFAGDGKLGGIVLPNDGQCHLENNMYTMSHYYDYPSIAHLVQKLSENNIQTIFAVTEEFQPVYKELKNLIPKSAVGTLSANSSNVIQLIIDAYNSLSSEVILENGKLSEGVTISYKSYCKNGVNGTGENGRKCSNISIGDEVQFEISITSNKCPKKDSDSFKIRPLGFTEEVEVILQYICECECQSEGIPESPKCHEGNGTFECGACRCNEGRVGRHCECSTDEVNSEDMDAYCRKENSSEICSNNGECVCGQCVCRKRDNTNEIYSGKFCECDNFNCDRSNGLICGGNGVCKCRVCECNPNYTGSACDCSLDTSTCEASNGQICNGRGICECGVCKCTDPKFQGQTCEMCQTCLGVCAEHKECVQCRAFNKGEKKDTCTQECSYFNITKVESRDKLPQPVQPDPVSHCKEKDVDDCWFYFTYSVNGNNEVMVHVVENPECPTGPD
Chain of human αVβ8 (P06756 31-992 limits assumed): as the sequence (P06756 31-992 limits assumed) above
Chain of human αVβ8 (P26012 43-684 limits assumed): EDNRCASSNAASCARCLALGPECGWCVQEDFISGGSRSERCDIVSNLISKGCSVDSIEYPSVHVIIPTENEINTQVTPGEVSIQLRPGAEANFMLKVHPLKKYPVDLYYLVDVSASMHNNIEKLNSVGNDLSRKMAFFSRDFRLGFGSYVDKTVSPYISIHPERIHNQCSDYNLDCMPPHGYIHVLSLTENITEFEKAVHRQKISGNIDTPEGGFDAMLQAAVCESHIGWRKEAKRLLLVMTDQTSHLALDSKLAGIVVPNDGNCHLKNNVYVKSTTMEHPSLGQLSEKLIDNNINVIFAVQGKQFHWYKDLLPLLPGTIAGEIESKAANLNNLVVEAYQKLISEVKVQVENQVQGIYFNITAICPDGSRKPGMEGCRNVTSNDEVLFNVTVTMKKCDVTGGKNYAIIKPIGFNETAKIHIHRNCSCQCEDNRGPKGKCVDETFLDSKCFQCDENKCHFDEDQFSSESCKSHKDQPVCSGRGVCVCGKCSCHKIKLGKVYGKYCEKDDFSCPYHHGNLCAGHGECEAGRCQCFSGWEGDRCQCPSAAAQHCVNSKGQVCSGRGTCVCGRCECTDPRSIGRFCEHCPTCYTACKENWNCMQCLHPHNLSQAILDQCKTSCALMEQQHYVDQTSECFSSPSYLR
T1 sequence (P06756 31-992 limits assumed): as the sequence (P06756 31-992 limits assumed) above
T1 sequence (P18564 22-707 limits assumed): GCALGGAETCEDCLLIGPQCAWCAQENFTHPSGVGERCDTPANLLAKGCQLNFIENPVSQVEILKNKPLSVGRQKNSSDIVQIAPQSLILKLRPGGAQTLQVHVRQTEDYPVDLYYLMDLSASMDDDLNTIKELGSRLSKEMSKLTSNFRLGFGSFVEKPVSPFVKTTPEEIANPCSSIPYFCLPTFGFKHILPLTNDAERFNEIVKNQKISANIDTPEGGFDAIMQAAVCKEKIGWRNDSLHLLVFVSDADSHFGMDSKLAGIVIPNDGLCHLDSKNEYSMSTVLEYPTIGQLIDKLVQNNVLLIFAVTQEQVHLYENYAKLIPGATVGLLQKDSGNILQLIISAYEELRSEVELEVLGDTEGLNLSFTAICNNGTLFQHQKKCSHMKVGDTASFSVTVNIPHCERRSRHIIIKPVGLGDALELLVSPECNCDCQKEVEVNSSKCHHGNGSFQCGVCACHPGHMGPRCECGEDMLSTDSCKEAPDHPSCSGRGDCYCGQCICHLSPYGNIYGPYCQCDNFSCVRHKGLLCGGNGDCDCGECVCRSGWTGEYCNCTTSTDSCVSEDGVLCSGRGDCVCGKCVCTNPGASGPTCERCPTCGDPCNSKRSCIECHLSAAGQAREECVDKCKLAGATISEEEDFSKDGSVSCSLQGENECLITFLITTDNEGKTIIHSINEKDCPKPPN
Chain of human αVβ3 (P06756 31-992 limits assumed): as the sequence (P06756 31-992 limits assumed) above
Chain of human αVβ3 (P05106 27-718 limits assumed): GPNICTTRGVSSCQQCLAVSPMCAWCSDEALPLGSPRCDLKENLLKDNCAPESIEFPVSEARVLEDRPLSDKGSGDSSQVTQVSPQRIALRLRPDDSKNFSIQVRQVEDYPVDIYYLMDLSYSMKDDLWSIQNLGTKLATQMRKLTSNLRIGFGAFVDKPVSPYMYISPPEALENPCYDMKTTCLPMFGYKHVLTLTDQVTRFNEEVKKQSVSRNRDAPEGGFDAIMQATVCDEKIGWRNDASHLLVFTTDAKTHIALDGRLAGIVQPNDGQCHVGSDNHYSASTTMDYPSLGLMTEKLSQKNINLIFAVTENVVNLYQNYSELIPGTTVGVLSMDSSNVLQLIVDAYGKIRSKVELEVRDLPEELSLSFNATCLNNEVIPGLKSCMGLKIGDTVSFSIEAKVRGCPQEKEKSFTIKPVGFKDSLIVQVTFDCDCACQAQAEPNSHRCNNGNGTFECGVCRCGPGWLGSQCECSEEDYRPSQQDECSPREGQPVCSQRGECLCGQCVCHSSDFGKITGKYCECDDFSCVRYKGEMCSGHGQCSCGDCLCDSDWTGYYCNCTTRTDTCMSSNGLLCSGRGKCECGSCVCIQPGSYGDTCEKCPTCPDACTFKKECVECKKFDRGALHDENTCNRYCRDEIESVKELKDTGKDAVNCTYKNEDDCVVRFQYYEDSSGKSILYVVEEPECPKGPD

IC50 [1] [nM]	IC50 [2] [nM]	IC50 [3] [nM]	IC50 [4] [nM]	IC50 [5] [nM]	Compound
3.75	–	–	–	–	COc1ccc([C@H](CC(=O)O)NC(=O)c2cc(CCC3CCc4cccnc4N3)c[nH]2)cc1F (mixture of isomers) [Example 2, (3S)-3-(3-Fluoro-4-methoxyphenyl)-3-(4-(2-(1,2,3,4-tetrahydro-1,8-naphthyridin-2-yl)ethyl)-1H-pyrrole-2-carboxamido)propanoic Acid]
2.55	–	–	–	–	COc1ccc([C@H](CC(=O)O)NC(=O)c2cc(CCc3ccc4c(n3)NCCC4)c[nH]2)cc1F [Example 1, (S)-3-(3-Fluoro-4-methoxyphenyl)-3-(4-(2-(5,6,7,8-tetrahydro-1,8-naphthyridin-2-yl)ethyl)-1H-pyrrole-2-carboxamido)propanoic Acid]
229	–	–	–	–	COc1ccc([C@@H](CC(=O)O)NC(=O)c2cc(CCc3ccc4c(n3)NCCC4)c[nH]2)cc1F [Example 3]
22.1	–	–	–	–	COc1ccc([C@H](CC(=O)O)NC(=O)c2cc(CCc3ccc4c(n3)NCCC4)cn2C)cc1F [Example 4]
50.3	–	–	–	–	CCn1cc(CCc2ccc3c(n2)NCCC3)cc1C(=O)N[C@@H](CC(=O)O)c1ccc(OC)c(F)c1 [Example 5]
5.93	–	–	–	–	COc1ccc([C@H](CC(=O)O)NC(=O)c2cc(CCc3ccc4c(n3)NCCC4)c(C)[nH]2)cc1F [Example 6]
4	–	–	–	–	COc1ccc([C@H](CC(=O)O)NC(=O)c2cc(CCc3ccc4c(n3)NCCC4)c[nH]2)cn1 [Example 7]
3.96	–	2.49	10.4	415	COc1ccc([C@H](CC(=O)O)NC(=O)c2cc(CCc3ccc4c(n3)NCCC4)c(C)[nH]2)cn1 [Example 10]
2.03	–	–	–	–	O=C(O)C[C@H](NC(=O)c1cc(CCc2ccc3c(n2)NCCC3)c[nH]1)c1cc(Cl)cc(Cl)c1 [Example 11]
7.17	3710	4.69	5.68	–	COc1ncc(C(CC(=O)O)NC(=O)c2cc(CCc3ccc4c(n3)NCCC4)c[nH]2)cn1 (stereo not shown) [Example 14]
1.1	360	3.44	1.73	–	O=C(O)C[C@H](NC(=O)c1cc(CCc2ccc3c(n2)NCCC3)c[nH]1)c1cnc2ccccc2c1 [Example 16]
4.63	1220	3.68	0.85	3760	O=C(O)C[C@H](NC(=O)c1cc(CCc2ccc3c(n2)NCCC3)c[nH]1)c1ccc2c(c1)OCC2 [Example 17]
81	–	–	–	–	COc1ccc([C@H](CC(=O)O)NC(=O)c2cc(-c3ccc4c(n3)NCCC4)c[nH]2)cc1F [Example 19]
22.4	–	–	–	–	COc1ccc([C@H](CC(=O)O)NC(=O)c2cc(CCCc3ccc4c(n3)NCCC4)c[nH]2)cn1 [Example 20]

Second part, the compound before the results:

Compound	IC50 [1] [nM]	IC50 [2] [nM]	IC50 [3] [nM]	IC50 [4] [nM]	IC50 [5] [nM]
Cc1cc(C)c(S(=O)(=O)N[C@@H](CNC(=O)c2cc(CCC3CCc4cccnc4N3)c[nH]2)C(=O)O)c(C)c1 (mixture of isomers) [Example 24, (2S)-3-(4-(2-(1,2,3,4-Tetrahydro-1,8-naphthyridin-2-yl)ethyl)-1H-pyrrole-2-carboxamido)-2-((2,4,6-trimethylphenyl)sulfonamido)propanoic Acid]	0.61	3.03	2	0.23	11.9
COc1ccc([C@H](CC(=O)O)NC(=O)c2cc(CCc3ccc4c(n3)NCCC4)cn2C)cn1 [Example 8]	22.5	–	–	–	–
CCn1cc(CCc2ccc3c(n2)NCCC3)cc1C(=O)N[C@@H](CC(=O)O)c1ccc(OC)nc1 [Example 9]	46.8	–	–	–	–
CC(C)(C)c1cc(Br)cc([C@H](CC(=O)O)NC(=O)c2cc(CCc3ccc4c(n3)NCCC4)c[nH]2)c1 [Example 12]	0.63	–	–	–	–
Cc1ncc(C(CC(=O)O)NC(=O)c2cc(CCc3ccc4c(n3)NCCC4)c[nH]2)cn1 (stereo not shown) [Example 13]	6.7	4000	4.59	3.84	–
O=C(O)CC(NC(=O)c1cc(CCc2ccc3c(n2)NCCC3)c[nH]1)c1cncnc1 (stereo not shown) [Example 15]	11.9	–	–	–	–
O=C(O)CC(NC(=O)c1cc(CCc2ccc3c(n2)NCCC3)c[nH]1)c1cnc2ccccc2n1 (stereo not shown) [Example 18]	25.9	–	–	–	–
Cc1ncc([C@H](CC(=O)O)NC(=O)c2cc(CCCc3ccc4c(n3)NCCC4)c[nH]2)cn1 [Example 21]	167	–	–	–	–
COc1ncc([C@H](CC(=O)O)NC(=O)c2cc(CCCc3ccc4c(n3)NCCC4)c[nH]2)cn1 [Example 22]	14.5	–	–	–	–
Cc1cc(C)c(S(=O)(=O)N[C@@H](CNC(=O)c2cc(CCc3ccc4c(n3)NCCC4)c[nH]2)C(=O)O)c(C)c1 [Example 23, (S)-3-(4-(2-(5,6,7,8-Tetrahydro-1,8-naphthyridin-2-yl)ethyl)-1H-pyrrole-2-carboxamido)-2-((2,4,6-trimethylphenyl)sulfonamido)propanoic Acid]	1.02	–	5.36	0.54	9.06
O=C(N[C@@H](CNC(=O)c1cc(CCc2ccc3c(n2)NCCC3)c[nH]1)C(=O)O)OCc1ccccc1 [Example 25, (S)-2-(((Benzyloxy)carbonyl)amino)-3-(4-(2-(5,6,7,8-tetrahydro-1,8-naphthyridin-2-yl)ethyl)-1H-pyrrole-2-carboxamido)propanoic Acid, TFA]	0.34	–	1.5	0.16	12.6
O=C(N[C@@H](CNC(=O)c1cc(CCc2ccc3c(n2)NCCC3)c[nH]1)C(=O)O)OC1CCCC1 [Example 26, (S)-2-(((Cyclopentyloxy)carbonyl)amino)-3-(4-(2-(5,6,7,8-tetrahydro-1,8-naphthyridin-2-yl)ethyl)-1H-pyrrole-2-carboxamido)propanoic Acid]	0.28	–	1.67	0.09	8.78
